Assay results: patent publication US10526352B2, “Tricyclic benzoxaborole compounds and uses thereof” (GlaxoSmithKline Intellectual Property (No.2) Limited, priority 2013, dated 2020)
In brackets after ≈: the same amount, converted by molar mass. Like-named read-outs stand apart in the source and are kept apart here.

Experiments:
[1] = system: M. tuberculosis standard strain Mtb H37Rv; test: MIC determination against mycobacteria (resazurin, Middlebrook 7H9); format: cell-based, Mycobacterium tuberculosis
[2] = system: M. tuberculosis clinical isolates; test: MIC against clinical strains (BACTEC MGIT 960 System); format: cell-based; settings: Mycobacterium tuberculosis
[3] = Mycobacterium tuberculosis, H37RV, read-out: Mtb H37Rv MIC (B)
[4] = HepG2 Tox50 (A) / Mtb H37Rv MIC (B)
[5] = Mycobacterium tuberculosis, H37RV; read-out: Mtb H37Rv MIC (B)

Row | Compound | MIC [1, 3] | Selectivity Index (A/B) (HepG2 cells; [4]) | HepG2 cell 48 h Tox50 (A) (HepG2 cells; human) | other results
1 | Cl.NC[C@H]1OB2O[C@H](CO)COc3ccc(F)c1c32 [Example 13, ((2S,8R)-2-(aminomethyl)-3-fluoro-7,8-dihydro-2H-1,6,9-trioxa-9a-borabenzo[cd]azulen-8-yl)methanol Hydrochloride] | 0.55 µM | – | – | Selectivity Index (A/B) (HepG2 cells): >10; HepG2 cell 48 h Tox50 (A) (HepG2 cells): >50 µM
2 | CC1(C)COB2OC(CN)c3cccc(c32)O1 (centres unmarked) [Example C10-H, reference compound] | > 5 µM | 10 | >50 µM | –
3 | CC1COc2c(Cl)cc(Cl)c3c2B(O1)OC3CN (centres unmarked) [Example C7-Cl2, reference compound] | 2.5 µM (≈ 0.72 µg/mL) | >20 | >50 µM | –
4 | NC[C@H]1OB2OCCOc3c(Cl)cc(Cl)c1c32 [Example C14-Cl2, reference compound] | > 5 µM | >10 | >50 µM | –
5 | Cl.NCC1OB2OCCOc3ccc(F)c1c32 (centres unmarked) [Example 5, (3-fluoro-7,8-dihydro-2H-1,6,9-trioxa-9a-borabenzo[cd]azulen-2-yl)methanamine hydrochloride)] | 0.6 µM | – | – | –
6 | c1cc2c3c(c1)OCCOB3OC2 [Example C1-H, reference compound] | – | – | – | MIC [1, 5]: 31 µM (≈ 5.46 µg/mL)
7 | CCOc1cccc2c1B(O)O[C@@H]2CN [Example C5-H, reference compound] | – | 3 | – | MIC [1, 5]: 0.6 µM (≈ 0.124 µg/mL); HepG2 cell 48 h Tox50 (A) (HepG2 cells): 1.8 µM
8 | NCCOc1cccc2c1B(O)OC2 [Example C3-H, reference compound] | – | >0.8 | – | MIC [1, 5]: 62 µM (≈ 12 µg/mL); HepG2 cell 48 h Tox50 (A) (HepG2 cells): >50 µM
9 | C[C@@]1(CO)COc2ccc(Br)c3c2B(OC3CN)O1 (stereo partly drawn) [Example 16, ((2S, 8R, or 2R, 8S)-2-(aminomethyl)-3-bromo-8-methyl-7,8-dihydro-2H-1,6,9-trioxa-9a-borabenzo[cd]azulen-8-yl)methanol] | 1.25 µM (≈ 0.41 µg/mL) | >40 | >50 µM | –
10 | C[C@@]1(CO)COc2ccc(Cl)c3c2B(OC3CN)O1 (single isomer, unassigned) [Example 14, ((2S, 8R or 2R, 8S)-2-(aminomethyl)-3-chloro-8-methyl-7,8-dihydro-2H-1,6,9-trioxa-9a-borabenzo[cd]azulen-8-yl)methanol] | 1.25 µM (≈ 0.354 µg/mL) | >4 | >50 µM | –
11 | C[C@]1(CO)COc2ccc(Cl)c3c2B(OC3CN)O1 (stereo partly drawn) [Example 15, ((2S, 8S, or 2R, 8R)-2-(aminomethyl)-3-chloro-8-methyl-7,8-dihydro-2H-1,6,9-trioxa-9a-borabenzo[cd]azulen-8-yl)methanol] | 0.93 µM (≈ 0.264 µg/mL) | >50 | >50 µM | –
12 | CC1(C)COc2c(Cl)ccc3c2B(OC3CN)O1 (centres unmarked) [Example C8-Cl, reference compound] | > 5 µM | 10 | >50 µM | –
13 | NC[C@H]1OB2OCCOc3ccc(Cl)c1c32 [Example G4-Cl] | – | – | – | MIC ([2]; for all of but 1 of the 40 clinical isolate strains tested): < 1 µM; MIC ([2]; read-out: measured MIC (breakdown), for 1 strain of 97 clinical isolates): ≤ 0.2 µM; MIC ([2]; read-out: measured MIC (breakdown), for 3 strains of 97 clinical isolates): 0.31 µM (≈ 0.0742 µg/mL); MIC ([2]; read-out: measured MIC (breakdown), for 8 strains of 97 clinical isolates (first group)): 0.04 µM (≈ 0.00958 µg/mL); MIC ([2]; read-out: measured MIC (breakdown), for 8 strains of 97 clinical isolates (second group)): 0.16 µM (≈ 0.0383 µg/mL); MIC ([2]; read-out: measured MIC (breakdown), for 76 strains of 97 clinical isolates): 0.08 µM (≈ 0.0192 µg/mL)
14 | Cl.NCC1OB2OCCOc3ccc(Br)c1c32 (centres unmarked) [Example 1, 3-bromo-7,8-dihydro-2H-1,6,9-trioxa-9a-borabenzo[cd]azulen-2-yl)methanamine Hydrochloride] | 0.18 µM | – | – | –
15 | Cl.NCC1OB2OCCOc3ccc(Cl)c1c32 (centres unmarked) [Example 3, 3-chloro-7,8-dihydro-2H-1,6,9-trioxa-9a-borabenzo[cd]azulen-2-yl)methanamine hydrochloride] | 0.47 µM | – | – | –
16 | CC1(C)COB2OC(CN)c3c(Cl)ccc(c32)O1 (centres unmarked) [Example C9-Cl, reference compound] | 5 µM (≈ 1.34 µg/mL) | >10 | >50 µM | –
17 | Cl.NC[C@H]1OB2OCCOc3ccc(I)c1c32 [Example 6, (S)-(3-iodo-7,8-dihydro-2H-1,6,9-trioxa-9a-borabenzo[cd]azulen-2-yl)methanamine hydrochloride] | 0.3 µM | – | – | –
